In publication PMC3342997 (HIV Medicine, 2011):
Converted amounts (≈) assume the structure as drawn. “And” between values parts separate entries of the source, which are not always exact repeats. Identical values can stand only once. Like-named read-outs stand apart in the source and are kept apart here.

Columns and labels:
HIV-1 = details: combination antiretroviral regimen
[1] = cited from earlier work
clinical [2] = details: female, human, in vivo, 200 mg
wild-type HIV-1 = details: mean in vitro, wild-type HIV-1 viral replication; ref not given; cited from earlier work
[3] = female, human, in vivo
[4] = for Women with detectable emtricitabine concentrations at pre-dose sampling: limit of detection 0.0118 mg/L
clinical [5] = details: female, human, 200 mg; for Vd/F / half-life: in vivo; for AUC: 200 mg once daily, steady state, AUC0-24, noncompartmental
[6] = in vivo; cited from earlier work
[7] = postpartum (n = 22), geometric least-squares mean (90% CI)
[8] = third trimester (n = 26), geometric least-squares mean (90% CI)

Nc1nc(=O)n([C@@H]2CS[C@H](CO)O2)cc1F [emtricitabine]
Women with viral load <400 HIV-1 RNA copies/mL (HIV-1; postpartum): 15 of 19 and 15
Women with viral load <400 HIV-1 RNA copies/mL (HIV-1; third trimester): 24 of 26
AUC ([1]; in vivo, 200 mg): 10000 ng·h/mL
Cmax ([1]; in vivo): 1800 ± 700 ng/mL
Minimum adult concentration ([1]; in vivo): 0.077 mg/L
Protein binding ([1]; in vivo): low protein binding
CL/F ([1]; nonpregnant adults, 200 mg once daily): 18.1 L/h
Kp (clinical [2]): 1.2
IC50 (drug concentration that suppresses viral replication by half) (wild-type HIV-1): 0.004 µg/mL (≈ 0.0162 µM)
IC90 (wild-type HIV-1): 0.051 µg/mL (≈ 0.206 µM)
Subjects with grade 3 adverse events of elevated bilirubin (human, in vivo): three subjects
Tolerability (human, in vivo): well tolerated
Congenital anomalies in infants (lachrymal duct stenosis, grade 3 vesicoureteral reflux, deemed not related to the antiretroviral regimen): two infants
Maternal plasma concentration at delivery [3]: 0.15 mg/L
Women with detectable emtricitabine concentrations at pre-dose sampling ([4]; antepartum): All 26 women
Subjects achieving target AUC ≥7.0 mg h/L ([4]; during pregnancy, 15 of 26 subjects, 80% CI 45–70%): 58%
C24 (24 hour post dose concentration) [4, 7]: 0.085 mg/L
Cmax [4, 7]: 1.4 (1.3–1.7) mg/L
C24 (24 hour post dose concentration) ([4]; postpartum (n = 22), geometric least-squares mean (90% CI), listed as Emtricitabine): 0.085 (0.07–0.1) mg/L
tmax ([4]; postpartum (n = 22), median (range)): 2.0 (min–max: 1–6) hours
Subjects achieving target AUC ≥7.0 mg h/L ([4]; postpartum, 21 of 22 subjects, 80% CI 89–100%): 95%
Women with detectable emtricitabine concentrations at pre-dose sampling ([4]; postpartum): 18 of 22
Magnitude of the AUC decrease during pregnancy ([4]; pregnancy compared with postpartum): less than 20%
C24 (24 hour post dose concentration) [4, 8]: 0.058 mg/L
Vd/F (clinical [5]; [7]): 301 L
Vd/F (clinical [5]; [8]): 334 L
half-life (clinical [5]; t1/2, postpartum (n = 22), geometric least-squares mean (90% CI)): 10.1 h
half-life (clinical [5]; t1/2, third trimester (n = 26), geometric least-squares mean (90% CI)): 9.3 h
Cmax (clinical [5]; plasma, oral): 1400 ng/mL
tmax (clinical [5]; plasma, oral): 2 h
AUC (clinical [5]; plasma, oral, postpartum (n = 22), geometric least-squares mean (90% CI)): 9700 ng·h/mL
AUC (clinical [5]; plasma, oral, third trimester (n = 26), geometric least-squares mean (90% CI)): 8000 ng·h/mL
concentration at 24 h (clinical [5]; plasma, oral, C24 (24 hour post dose concentration), postpartum (n = 22), geometric least-squares mean (90% CI)): 85 ng/mL
concentration at 24 h (clinical [5]; plasma, oral, C24 (24 hour post dose concentration), third trimester (n = 26), geometric least-squares mean (90% CI)): 58 ng/mL
concentration at 24 h (clinical [5]; plasma, oral, Lowest C24, postpartum): 70 ng/mL

Cc1ccnc2c1NC(=O)c1cccnc1N2C1CC1 [nevirapine]
Reduction of exposure during pregnancy [6]: 10–20%
